# Source: patent US5728686A, “Alkylxanthine phosphonates and alkylxanthine phosphine oxides and their use as pharmaceuticals” (Hoechst Aktiengesellschaft, priority 1996, dated 1998)
# What was measured:
# soleus muscle = assay: rat muscle function test: muscle weight (atrophy of immobilized extremity); type: in vivo, male Wistar rats; conditions: oral, 1x per day for 3 weeks, as a rule 25 mg/kg, difference ≤25% classified as an effect
# Summary of the method: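 Male Wistar rats (~300 g) had the right hind limb immobilized in a padded plastic cast for 3 weeks with daily oral dosing by stomach tube, as a rule 25 mg/kg in carboxymethylcellulose. Soleus weight of the immobilized limb was compared with the contralateral limb; a difference of ≤25% was classed as an effect.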
# [1] = system: isolated guinea pig trachea, agonist PGF2α; assay: antagonist of PGF2α-induced contraction of isolated guinea pig trachea; type: cell-based; conditions: Cavia porcellus, 37° C., read-out: Anticontractile action (trachea), PGF2α: concentration range for dilatation corresponding to ED50 range
# Source text: (§1) 3. Activity as antagonist of the contraction of isolated guinea pig trachea
# (§2) The compounds of the formula I are used as antagonists of the contraction of isolated guinea pig trachea. The agonists employed were PGF2α (Upjohn, Germany), calcium ionophore A23187 (Calbiochem, Bad Soden, Germany), and substance P (American Peptide Comp., USA):
# Inhibition of contractions which are induced by this cyclooxygenase product is only possible by competitive antagonism at the receptor or of the subsequent signal pathway.
# (§3) Preparation of the organ sections and experimental procedure:
# (§4) The guinea pig is sacrificed by means of terminal laughing gas anaesthesia. The trachea is exposed along its entire length and cut into 15 individual cartilage rings. 5 rings in each case are tied together to give a chain and fixed in the organ bath under a preload of 3 g. After an equilibration time of 45 minutes, a contraction is produced using the agonist. The antagonist (test preparation) is added cumulatively on the plateau of the maximum. Evaluation is carried out in % force change relative to the contraction maximum. The experimental procedure is carried out at 37° C.; the physiological nutrient solution used is a modified Krebs-Henseleit solution through which is bubbled 95% by volume of O2, 5% by volume of CO2.
# (§5) Experimental animals: albino guinea pigs (Hattersheim Animal Breeding Institute, Kastengrund, Germany), weight: 200 to 300 g, sex male or female.
# (§6) Vehicle: double-distilled water, ethanol or isopropanol; administration: into the organ bath number of administration: cumulative, in SP individual doses
# (§7) All numerical values are indicated in the unit μg/ml and relate to the concentration range of the tested compound of the formula I according to the invention (see example numbers in Table 1) which is necessary in order to cause a dilatation which corresponds to the ED50 range.
# [2] = system: isolated guinea pig trachea, agonist calcium ionophore A23187; assay: antagonist of calcium ionophore A23187-induced contraction of isolated guinea pig trachea; type: cell-based; conditions: Cavia porcellus, 37° C., read-out: Anticontractile action (trachea), Ca ionophore: concentration range for dilatation corresponding to ED50 range
# Source text: as §1, §2
# b) Calcium ionophore A23187 (Calbiochem, Bad Soden) acts by increased uptake of calcium ions, and an activation of all calcium-dependent signal cascades in the cell. Lipoxygenase inhibitors, in particular, and generally antiinflammatory substances show effects in this model.
# as §3, §4, §5, §6, §7
# [3] = system: isolated guinea pig trachea, agonist substance P; assay: antagonist of substance P-induced contraction of isolated guinea pig trachea; type: cell-based; conditions: Cavia porcellus, individual doses, 37° C., read-out: Anticontractile action (trachea), SP antagonism: concentration range for dilatation corresponding to ED50 range
# Source text: as §1, §2
# The antagonism is possible on the one hand due to specific receptor antagonists, and on the other hand also due to inhibition of the subsequent signal pathway. Preparations which directly or indirectly increase the intracellular concentration of cyclic nucleotides in particular show spasmolytic properties here.
# as §3, §4, §5, §6, §7
smiles,measurement,setting,value
"CCOP(=O)(CCCn1cnc2c1c(=O)[nH]c(=O)n2C)OCC [Example 2, Diethyl [4-(3-methylxanthin-7-yl)propyl]phosphonate]",Muscle weight (right/left difference),soleus muscle,-22 Δ %
same,EC50,[1],> 10 µg/mL
same,EC50,[2],> 10 µg/mL
same,EC50,[3],10 to 30 µg/mL
